Reference: patent USRE38117E1, “Trioxane dimer compound having antiproliferative and antitumor activities” (Hauser, Inc., priority 1995, dated 2003)

How the values were obtained:
Assay type in all cases: cell-based
SNB-19 = test: NCI 60 cell line screen (SRB), CNS Cancer; conditions: SNB-19 (CNS Cancer)
A498 = test: NCI 60 cell line screen (SRB), Renal Cancer
HCT-15 = test: NCI 60 cell line screen (SRB), Colon Cancer; conditions: HCT-15 (Colon Cancer)
786-0 = test: NCI 60 cell line screen (SRB), Renal Cancer; conditions: 786-0 (Renal Cancer)
COLO 205 = test: NCI 60 cell line screen (SRB), Colon Cancer; conditions: COLO 205 (Colon Cancer)
NCI-H322M = test: NCI 60 cell line screen (SRB), Non-Small Cell Lung Cancer
U251 = test: NCI 60 cell line screen (SRB), CNS Cancer
UACC-257 = test: NCI 60 cell line screen (SRB), Melanoma; conditions: UACC-257 (Melanoma)
SN12C = test: NCI 60 cell line screen (SRB), Renal Cancer
M14 = test: NCI 60 cell line screen (SRB), Melanoma
TK-10 = test: NCI 60 cell line screen (SRB), Renal Cancer; conditions: TK-10 (Renal Cancer)
KM12 = test: NCI 60 cell line screen (SRB), Colon Cancer
HL-60(TB) = test: NCI 60 cell line screen (SRB), Leukemia; conditions: HL-60(TB) (Leukemia)
HCC-2998 = test: NCI 60 cell line screen (SRB), Colon Cancer; conditions: HCC-2998 (Colon Cancer)
T-47D = test: NCI 60 cell line screen (SRB), Breast Cancer; conditions: T-47D (Breast Cancer)
CCRF-CEM = test: NCI 60 cell line screen (SRB), Leukemia
MDA-N = test: NCI 60 cell line screen (SRB), Breast Cancer
SK-MEL-2 = test: NCI 60 cell line screen (SRB), Melanoma; conditions: SK-MEL-2 (Melanoma)
OVCAR-4 = test: NCI 60 cell line screen (SRB), Ovarian Cancer; conditions: OVCAR-4 (Ovarian Cancer)
HT29 = test: NCI 60 cell line screen (SRB), Colon Cancer
NCI-H522 = test: NCI 60 cell line screen (SRB), Non-Small Cell Lung Cancer
HS 578T = test: NCI 60 cell line screen (SRB), Breast Cancer; conditions: HS 578T (Breast Cancer)
SNB-75 = test: NCI 60 cell line screen (SRB), CNS Cancer; conditions: SNB-75 (CNS Cancer)
SK-MEL-5 = test: NCI 60 cell line screen (SRB), Melanoma; conditions: SK-MEL-5 (Melanoma)
EKVX = test: NCI 60 cell line screen (SRB), Non-Small Cell Lung Cancer
HOP-92 = test: as above; conditions: HOP-92 (Non-Small Cell Lung Cancer)
A549/ATCC = test: as above

In the case of `CC(=O)O[C@H]1C(=O)[C@@]2(C)[C@H]([C@H](OC(=O)c3ccccc3)[C@]3(O)C[C@H](OC(=O)[C@H](O)[C@@H](NC(=O)c4ccccc4)c4ccccc4)C(C)=C1C3(C)C)[C@]1(OC(C)=O)CO[C@@H]1C[C@@H]2O` [Paclitaxel, paclitaxel, reference compound], the Log10GI50 (SNB-19) is reported as −8.98 M, the Log10LC50 (SNB-19) is reported as greater than −4.00 M and the Log10TGI (SNB-19) is reported as greater than −4.00 M. For the same compound, the Log10GI50 (A498) was −7.14 M, the Log10LC50 (A498) was −4.13 M and the Log10GI50 (HCT-15) was −6.37 M. It also gave a Log10LC50 (HCT-15) greater than −4.00 M, a Log10TGI (HCT-15) greater than −4.00 M and a Log10GI50 (786-0) of −8.01 M. It also gave a Log10LC50 (786-0) greater than −4.00 M, a Log10TGI (786-0) greater than −4.00 M and a Log10GI50 (COLO 205) of −11.07 M. The Log10LC50 (COLO 205) was greater than −4.41 M, the Log10GI50 (NCI-H322M) was −10.12 M and the Log10LC50 (NCI-H322M) was greater than −4.00 M. The Log10TGI (NCI-H322M) was −4.46 M, the Log10GI50 (U251) was −11.29 M and the Log10LC50 (U251) was −4.15 M. It also gave a Log10TGI (U251) of −4.32 M, a Log10GI50 (UACC-257) of −10.30 M and a Log10LC50 (UACC-257) of −4.03 M. It also gave a Log10TGI (UACC-257) of −4.52 M, a Log10GI50 (SN12C) of −9.53 M and a Log10LC50 (SN12C) greater than −4.00 M. For the same compound, the Log10GI50 (M14) was −11.73 M, the Log10LC50 (M14) was −4.13 M and the Log10TGI (M14) was −4.62 M. For the same compound, the Log10GI50 (TK-10) was −7.89 M, the Log10GI50 (KM12) was −11.43 M and the Log10LC50 (KM12) was greater than −4.00 M. It also gave a Log10TGI (KM12) of −4.36 M, a Log10GI50 (HL-60(TB)) of −11.57 M and a Log10LC50 (HL-60(TB)) greater than −4.53 M. The Log10TGI (HL-60(TB)) was −4.53 M, the Log10GI50 (HCC-2998) was −12.34 M and the Log10LC50 (HCC-2998) was −4.26 M. The Log10TGI (HCC-2998) was −4.77 M, the Log10GI50 (T-47D) was −9.81 M and the Log10LC50 (T-47D) was greater than −4.00 M. It also gave a Log10GI50 (CCRF-CEM) of −11.61 M, a Log10LC50 (CCRF-CEM) greater than −4.00 M and a Log10TGI (CCRF-CEM) greater than −4.00 M. For the same compound, the Log10GI50 (MDA-N) was less than −13.00 M, the Log10GI50 (SK-MEL-2) was −9.53 M and the Log10LC50 (SK-MEL-2) was greater than −4.00 M. The Log10GI50 (OVCAR-4) was −5.00 M, the Log10LC50 (OVCAR-4) was greater than −4.00 M and the Log10TGI (OVCAR-4) was −4.19 M. It also gave a Log10GI50 (HT29) of less than −13.00 M, a Log10LC50 (HT29) of −4.39 M and a Log10GI50 (NCI-H522) greater than −13.00 M. For the same compound, the Log10LC50 (NCI-H522) was greater than −4.00 M and the Log10TGI (NCI-H522) was −11.20 M.

In the case of `C[C@@H]1CC[C@H]2[C@@H](C)C(=O)O[C@@H]3O[C@@]4(C)CC[C@@H]1[C@]32OO4` [QHS, 3,6,9-trimethyl-9,10b-epidioxyperhydropyrano[4,3,2-jk]benzoxepin-2-one, reference compound], the Log10GI50 (SNB-19) is reported as greater than −4.00 M, the Log10LC50 (SNB-19) is reported as greater than −4.00 M and the Log10TGI (SNB-19) is reported as greater than −4.00 M. It also gave a Log10GI50 (A498) greater than −4.00 M, a Log10LC50 (A498) greater than −4.00 M and a Log10TGI (A498) greater than −4.00 M. The Log10GI50 (HCT-15) was greater than −4.00 M, the Log10LC50 (HCT-15) was greater than −4.00 M and the Log10TGI (HCT-15) was greater than −4.00 M. It also gave a Log10GI50 (786-0) greater than −4.00 M, a Log10LC50 (786-0) greater than −4.00 M and a Log10TGI (786-0) greater than −4.00 M. For the same compound, the Log10GI50 (HS 578T) was greater than −4.00 M, the Log10LC50 (HS 578T) was greater than −4.00 M and the Log10TGI (HS 578T) was greater than −4.00 M. For the same compound, the Log10GI50 (SNB-75) was greater than −4.00 M, the Log10LC50 (SNB-75) was greater than −4.00 M and the Log10TGI (SNB-75) was greater than −4.00 M. It also gave a Log10GI50 (COLO 205) greater than −4.00 M, a Log10LC50 (COLO 205) greater than −4.00 M and a Log10TGI (COLO 205) greater than −4.00 M. For the same compound, the Log10GI50 (U251) was greater than −4.00 M, the Log10LC50 (U251) was greater than −4.00 M and the Log10TGI (U251) was greater than −4.00 M. The Log10GI50 (UACC-257) was greater than −4.00 M, the Log10LC50 (UACC-257) was greater than −4.00 M and the Log10TGI (UACC-257) was greater than −4.00 M. The Log10GI50 (SK-MEL-5) was −4.10 M, the Log10LC50 (SK-MEL-5) was greater than −4.00 M and the Log10TGI (SK-MEL-5) was greater than −4.00 M. For the same compound, the Log10GI50 (SN12C) was −4.21 M, the Log10LC50 (SN12C) was greater than −4.00 M and the Log10TGI (SN12C) was greater than −4.00 M. For the same compound, the Log10LC50 (M14) was greater than −4.00 M, the Log10TGI (M14) was greater than −4.00 M and the Log10GI50 (TK-10) was greater than −4.00 M. The Log10LC50 (TK-10) was greater than −4.00 M, the Log10TGI (TK-10) was greater than −4.00 M and the Log10GI50 (KM12) was greater than −4.00 M. It also gave a Log10LC50 (KM12) greater than −4.00 M, a Log10TGI (KM12) greater than −4.00 M and a Log10GI50 (HL-60(TB)) of −4.26 M. For the same compound, the Log10LC50 (HL-60(TB)) was greater than −4.00 M, the Log10TGI (HL-60(TB)) was −4.00 M and the Log10GI50 (EKVX) was greater than −4.00 M. For the same compound, the Log10LC50 (EKVX) was greater than −4.00 M, the Log10TGI (EKVX) was greater than −4.00 M and the Log10GI50 (HCC-2998) was greater than −4.00 M. The Log10LC50 (HCC-2998) was greater than −4.00 M, the Log10TGI (HCC-2998) was greater than −4.00 M and the Log10LC50 (T-47D) was greater than −4.00 M. The Log10TGI (T-47D) was greater than −4.00 M, the Log10GI50 (HOP-92) was greater than −4.00 M and the Log10LC50 (HOP-92) was greater than −4.00 M. The Log10TGI (HOP-92) was greater than −4.00 M, the Log10GI50 (MDA-N) was greater than −4.00 M and the Log10LC50 (MDA-N) was greater than −4.00 M. It also gave a Log10TGI (MDA-N) greater than −4.00 M, a Log10LC50 (SK-MEL-2) greater than −4.00 M and a Log10TGI (SK-MEL-2) greater than −4.00 M. For the same compound, the Log10GI50 (HT29) was greater than −4.00 M, the Log10LC50 (HT29) was greater than −4.00 M and the Log10TGI (HT29) was greater than −4.00 M. For the same compound, the Log10GI50 (A549/ATCC) was −4.17 M, the Log10LC50 (A549/ATCC) was greater than −4.00 M and the Log10TGI (A549/ATCC) was greater than −4.00 M.
